The target of one test is T1, Human BACE1(1-460):Fc (Homo sapiens, UniProt P56817).
T1 construct: made in house; host or cells: HEK293 (transient transfection, conditioned medium)
The test is described as follows: BACE1 FRET Assay. The format is biochemical. The conditions noted are these: purified recombinant huBACE1:Fc, FRET substrate based on APP sequence, pH 4.6; mean ± standard deviation of the mean (0.035), n=5. As for the experimental part: (§1) To assess selectivity of BACE1 over BACE2, the test compound is evaluated in FRET assays using specific substrates for BACE1 and BACE2 as described below. For in vitro enzymatic and cellular assays, the test compound is prepared in DMSO to make up a 10 mM stock solution. The stock solution is serially diluted in DMSO to obtain a ten-point dilution curve with final compound concentrations ranging from 10 μM to 0.05 nM in a 96-well round-bottom plate before conducting the in vitro enzymatic and whole cell assays.
Human BACE1 (accession number: AF190725) and human BACE2 (accession number: AF 204944) are cloned from total brain cDNA by RT-PCR. The nucleotide sequences corresponding to amino acid sequences #1 to 460 are inserted into the cDNA encoding human IgG1 (Fc) polypeptide (Vassar et al., Science, 286, 735-742 (1999)). […]
Conditioned media of HEK293 cells transiently transfected with huBACE1:Fc or huBACE2:Fc cDNA are collected. […] The purity of the final product is assessed by electrophoresis in 4-20% Tris-Glycine SDS-PAGE. […]
Serial dilutions of the test compound are prepared as described above. […] The RFU of the mixture at time 0 is recorded at excitation wavelength 355 nm and emission wavelength 460 nm, after brief mixing on a plate shaker. […] The RFU at the end of incubation is recorded with the same excitation and emission settings used at time 0. […]

In the next test the target is T2, BACE1 (Homo sapiens, UniProt P56817).
T2 construct: endogenous in cells; host or cells: SH-SY5Y (ATCC CRL2266) stably expressing human APP695Wt
T2 sequence (P56817 46-501): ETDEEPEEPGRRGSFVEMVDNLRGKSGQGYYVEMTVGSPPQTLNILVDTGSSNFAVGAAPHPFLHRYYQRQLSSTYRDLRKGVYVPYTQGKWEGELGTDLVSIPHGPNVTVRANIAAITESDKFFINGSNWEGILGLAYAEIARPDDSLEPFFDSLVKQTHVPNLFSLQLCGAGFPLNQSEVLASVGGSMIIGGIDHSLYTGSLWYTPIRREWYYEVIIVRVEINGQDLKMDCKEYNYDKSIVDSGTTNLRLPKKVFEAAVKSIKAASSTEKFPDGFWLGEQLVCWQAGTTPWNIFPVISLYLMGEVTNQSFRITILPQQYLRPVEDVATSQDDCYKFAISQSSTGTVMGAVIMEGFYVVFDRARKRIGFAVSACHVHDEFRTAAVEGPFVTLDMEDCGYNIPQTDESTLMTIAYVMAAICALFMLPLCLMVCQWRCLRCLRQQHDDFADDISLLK
As to the kind of experiment: SH-SY5YAPP695Wt Whole Cell Assay (Abeta ELISA). It is filed as cell-based. The settings on record: SH-SY5Y cells stably expressing human APP695Wt, 24 hours incubation, n=6. The procedure:
as §1
The routine whole cell assay for the measurement of inhibition of BACE1 activity utilizes the human neuroblastoma cell line SH-SY5Y (ATCC Accession No. CRL2266) stably expressing a human APP695Wt cDNA. Cells are routinely used up to passage number 6 and then discarded.
SH-SY5YAPP695Wt cells are plated in 96 well tissue culture plates at 5.0×10^4 cells/well in 200 μL culture media (50% MEM/EBSS and Ham's F12, 1× each sodium pyruvate, non-essential amino acids and NaHCO3 containing 10% FBS). The following day, media is removed from the cells, fresh media added then incubated at 37° C. for 24 hours in the presence/absence of test compound at the desired concentration range.
At the end of the incubation, conditioned media are analyzed for evidence of beta-secretase activity by analysis of Abeta peptides 1-40 and 1-42 by specific sandwich ELISAs. […]
In general terms: An ELISA detects its analyte on a solid surface through an enzyme-linked reagent.

Read-outs that look alike come from different tables or passages of the source.

What is called IC50 is the point on the concentration scale where inhibition reaches its midpoint.

T1 sequence (P56817 22-460): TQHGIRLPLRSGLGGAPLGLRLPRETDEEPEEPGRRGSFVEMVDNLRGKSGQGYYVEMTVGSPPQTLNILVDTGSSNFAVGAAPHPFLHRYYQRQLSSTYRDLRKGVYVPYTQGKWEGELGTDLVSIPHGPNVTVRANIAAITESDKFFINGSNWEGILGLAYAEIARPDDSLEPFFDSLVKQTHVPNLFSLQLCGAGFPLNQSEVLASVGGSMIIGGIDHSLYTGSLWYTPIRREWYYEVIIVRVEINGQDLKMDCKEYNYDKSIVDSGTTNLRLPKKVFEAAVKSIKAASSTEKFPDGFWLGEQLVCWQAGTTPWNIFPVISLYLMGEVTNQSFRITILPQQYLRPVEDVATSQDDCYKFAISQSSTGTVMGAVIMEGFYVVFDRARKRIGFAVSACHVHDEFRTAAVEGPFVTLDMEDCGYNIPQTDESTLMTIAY

Regarding `CC(F)(F)[C@H]1C[C@H]2CSC(N)=N[C@@]2(c2cc(NC(=O)c3ccc(C#N)cn3)ccc2F)CO1` [Example 1, N-[3-[(4aR,6R,8aS)-2-Amino-6-(1,1-difluoroethyl)-4a,5,6,8-tetrahydro-4H-pyrano[3,4-d][1,3]thiazin-8a-yl]-4-fluoro-phenyl]-5-cyano-pyridine-2-carboxamide], the IC50 at Human BACE1(1-460):Fc was 0.263 nM; at BACE1 (Abeta 1-40 in conditioned media, mean ± standard deviation of the mean (0.0104), read-out: IC50 for SH-SY5YAPP695Wt A-beta (1-40) ELISA), 0.026 nM; at BACE1 (Abeta 1-42 in conditioned media, mean ± standard deviation of the mean (0.0187), read-out: IC50 for SH-SY5YAPP695Wt A-beta (1-42) ELISA), 0.0313 nM.

The values are drawn from US20210355138A1, “AMINOTHIAZINIES AND THEIR USE AS BACE1 INHIBITORS” (Eli Lilly and Company, priority 2016, published 2021).
